Test results reported in patent US20220081435A1, “ANDROGEN RECEPTOR PROTEIN DEGRADERS” (THE REGENTS OF THE UNIVERSITY OF MICHIGAN, priority 2019, published 2022).
Where two headings read alike, the source gives them in different places.

Biological target: T1, AR protein (Homo sapiens, UniProt P10275, T878A)
T1 construct: The percent AR protein degradation induced by these compounds at various concentrations in LNCaP cells; host or cells: LNCaP
T1 sequence (P10275 1-920 T878A): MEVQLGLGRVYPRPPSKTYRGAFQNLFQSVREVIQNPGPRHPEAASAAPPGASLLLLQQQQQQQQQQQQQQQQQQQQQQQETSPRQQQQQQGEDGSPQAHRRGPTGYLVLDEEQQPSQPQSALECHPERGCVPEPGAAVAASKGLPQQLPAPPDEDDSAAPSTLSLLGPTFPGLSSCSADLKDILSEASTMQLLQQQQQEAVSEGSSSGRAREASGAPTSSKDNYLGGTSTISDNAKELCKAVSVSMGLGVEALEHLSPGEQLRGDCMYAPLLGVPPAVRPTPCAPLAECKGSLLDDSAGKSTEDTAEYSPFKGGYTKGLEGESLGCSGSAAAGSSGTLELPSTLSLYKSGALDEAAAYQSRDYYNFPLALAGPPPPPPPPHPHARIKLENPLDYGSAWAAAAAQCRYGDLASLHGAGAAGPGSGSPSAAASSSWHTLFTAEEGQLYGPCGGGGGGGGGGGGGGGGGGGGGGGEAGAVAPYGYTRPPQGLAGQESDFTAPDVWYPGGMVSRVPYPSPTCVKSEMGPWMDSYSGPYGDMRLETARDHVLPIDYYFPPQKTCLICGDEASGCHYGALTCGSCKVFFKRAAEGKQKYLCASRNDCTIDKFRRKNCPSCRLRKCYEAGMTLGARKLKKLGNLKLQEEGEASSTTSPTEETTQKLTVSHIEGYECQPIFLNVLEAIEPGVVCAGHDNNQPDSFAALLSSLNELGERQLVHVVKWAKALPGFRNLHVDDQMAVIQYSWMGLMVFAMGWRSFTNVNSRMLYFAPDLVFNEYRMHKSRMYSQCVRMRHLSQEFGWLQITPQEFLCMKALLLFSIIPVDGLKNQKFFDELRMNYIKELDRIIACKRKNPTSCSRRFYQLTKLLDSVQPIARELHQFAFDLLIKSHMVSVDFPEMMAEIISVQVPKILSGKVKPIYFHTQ
Experiment: AR protein degradation in LNCaP cells (Western blotting)
Type: cell-based
Settings: for Dmax at 0.01 µM / Dmax at 0.1 µM / Dmax at 1 µM / Dmax at 10 µM / AR degradation (Western blotting, dose-dependent): LNCaP; for Dmax at 0.1 µM / Dmax at 1 µM / Dmax at 10 µM: read-out: % AR protein degradation in LNCaP Cells
Experimental: Cell lines and Cell Culture: All the LNCaP, VCaP and 22RV1 cells used were purchased from American Type Culture Collection (ATCC). […] All of the cells were supplemented with 10% fetal bovine serum (Invitrogen) at 37° C. in a humidified 5% CO2 incubator.
Western Blotting. Treated cells were lysed by RIPA buffer supplemented with protease and phosphatase inhibitors. […] Software ImageJ was used to quantify the percentage of AR degradation. The net protein bands and loading controls are calculated by deducting the background from the inverted band value. The final relative quantification values are the ratio of net band to net loading control.

[1] = 0.01 μM, treatment time 6 h, average of three independent experiments
[2] = 0.1 μM, treatment time 6 h, average of three independent experiments
[3] = 1 μM, treatment time 6 h, average of three independent experiments
[4] = 10 μM, treatment time 6 h, average of three independent experiments

SMILES	Dmax at 0.01 µM [1]	Dmax at 0.1 µM [2]	Dmax at 1 µM [3]	further results
Cc1ncsc1-c1ccc(CNC(=O)C2C[C@@H](O)CN2C(=O)[C@@H](NC(=O)CCCCCCCCCCNC(=O)c2ccc(N3C(=S)N(c4ccc(C#N)c(C(F)(F)F)c4)C(=O)C3(C)C)cc2F)C(C)(C)C)cc1 (stereo partly drawn) [Compound 16, (4R)-1-((S)-2-(11-(4-(3-(4-Cyano-3-(trifluoromethyl)phenyl)-5,5-dimethyl-4-oxo-2-thioxoimidazolidin-1-yl)-2-fluorobenzamido)undecanamido)-3,3-dimethylbutanoyl)-4-hydroxy-N-(4-(4-methylthiazol-5-yl)benzyl)pyrrolidine-2-carboxamide]	11%	48%	86%	
Cc1cc([C@H](C(=O)N2C[C@H](O)C[C@H]2C(=O)N[C@@H](CC(=O)N2CCC(N3CCC(C#Cc4ccc(N5C(=S)N(c6ccc(C#N)c(C(F)(F)F)c6)C(=O)C5(C)C)cc4)CC3)CC2)c2ccc(-c3scnc3C)cc2)C(C)C)on1 [Compound 29, (2S,4R)—N—((S)-3-(4-((4-(3-(4-Cyano-3-(trifluoromethyl)phenyl)-5,5-dimethyl-4-oxo-2-thioxoimidazolidin-1-yl)phenyl)ethynyl)-[1,4′-bipiperidin]-1′-yl)-1-(4-(4-methylthiazol-5-yl)phenyl)-3-oxopropyl)-4-hydroxy-1-((R)-3-methyl-2-(3-methylisoxazol-5-yl)butanoyl)pyrrolidine-2-carboxamide]	20%	81%	97%	
Cc1cc([C@H](C(=O)N2C[C@H](O)C[C@H]2C(=O)N[C@@H](CC(=O)NCCCCCCCCCNC(=O)c2ccc(N3C(=S)N(c4ccc(C#N)c(C(F)(F)F)c4)C(=O)C3(C)C)cc2F)c2ccc(-c3scnc3C)cc2)C(C)C)on1 [Compound 26, (2S,4R)—N—((S)-3-((9-(4-(3-(4-Cyano-3-(trifluoromethyl)phenyl)-5,5-dimethyl-4-oxo-2-thioxoimidazolidin-1-yl)-2-fluorobenzamido)nonyl)amino)-1-(4-(4-methylthiazol-5-yl)phenyl)-3-oxopropyl)-4-hydroxy-1-((R)-3-methyl-2-(3-methylisoxazol-5-yl)butanoyl)pyrrolidine-2-carboxamide]	11%	50%	87%	
Cc1cc([C@H](C(=O)N2C[C@H](O)C[C@H]2C(=O)N[C@@H](CC(=O)N2CCC(N3CCC(C#Cc4ccc(Cc5c(C)nn(-c6ccc(C#N)c(Cl)c6)c5C)cc4)CC3)CC2)c2ccc(-c3scnc3C)cc2)C(C)C)on1 [Compound 33, (2S,4R)—N—((S)-3-(4-((4-((1-(3-Chloro-4-cyanophenyl)-3,5-dimethyl-1H-pyrazol-4-yl)methyl)phenyl)ethynyl)-[1,4′-bipiperidin]-1′-yl)-1-(4-(4-methylthiazol-5-yl)phenyl)-3-oxopropyl)-4-hydroxy-1-((R)-3-methyl-2-(3-methylisoxazol-5-yl)butanoyl)pyrrolidine-2-carboxamide]				Dmax at 0.1 µM (6 h): 65%; Dmax at 1 µM (6 h): 93%; Dmax at 10 µM (6 h): 78%
Cc1cc([C@H](C(=O)N2C[C@H](O)C[C@H]2C(=O)N[C@@H](CC(=O)NCCCN2CCN(c3ccc(C#Cc4ccc(N5C(=S)N(c6ccc(C#N)c(C(F)(F)F)c6)C(=O)C5(C)C)cc4)cn3)CC2)c2ccc(-c3scnc3C)cc2)C(C)C)on1 [Compound 27, (2S,4R)—N—((S)-3-((3-(4-(5-((4-(3-(4-Cyano-3-(trifluoromethyl)phenyl)-5,5-dimethyl-4-oxo-2-thioxoimidazolidin-1-yl)phenyl)ethynyl)pyridin-2-yl)piperazin-1-yl)propyl)amino)-1-(4-(4-methylthiazol-5-yl)phenyl)-3-oxopropyl)-4-hydroxy-1-((R)-3-methyl-2-(3-methylisoxazol-5-yl)butanoyl)pyrrolidine-2-carboxamide]	27%	75%	94%	
Cc1ncsc1-c1ccc(CNC(=O)C2C[C@@H](O)CN2C(=O)[C@@H](NC(=O)CCCCNC(=O)c2ccc(N3C(=S)N(c4ccc(C#N)c(C(F)(F)F)c4)C(=O)C3(C)C)cc2F)C(C)(C)C)cc1 (stereo partly drawn) [Compound 10, (4R)-1-((S)-2-(5-(4-(3-(4-Cyano-3-(trifluoromethyl)phenyl)-5,5-dimethyl-4-oxo-2-thioxoimidazolidin-1-yl)-2-fluorobenzamido)pentanamido)-3,3-dimethylbutanoyl)-4-hydroxy-N-(4-(4-methylthiazol-5-yl)benzyl)pyrrolidine-2-carboxamide]				Dmax at 0.1 µM (6 h): 16%; Dmax at 1 µM (6 h): 20%; Dmax at 10 µM (6 h): 25%
Cc1cc([C@H](C(=O)N2C[C@H](O)C[C@H]2C(=O)N[C@@H](CC(=O)N2CCC(N3CCC(C#Cc4ccc(C(=O)N[C@H]5C(C)(C)[C@H](Oc6ccc(C#N)c(Cl)c6)C5(C)C)cc4)CC3)CC2)c2ccc(-c3scnc3C)cc2)C(C)C)on1 [Compound 32, (2S,4R)—N—((S)-3-(4-((4-(((1r,3r)-3-(3-Chloro-4-cyanophenoxy)-2,2,4,4-tetramethyl-cyclobutyl)carbamoyl)phenyl)ethynyl)-[1,4′-bipiperidin]-1′-yl)-1-(4-(4-methylthiazol-5-yl)phenyl)-3-oxopropyl)-4-hydroxy-1-((R)-3-methyl-2-(3-methylisoxazol-5-yl)butanoyl)pyrrolidine-2-carboxamide]				% AR protein degradation in LNCaP Cells [1]: 76%; % AR protein degradation in LNCaP Cells [2]: 98%; % AR protein degradation in LNCaP Cells [3]: 99%; AR degradation (Western blotting, dose-dependent) (at 10 nM): partial AR degradation; AR degradation (Western blotting, dose-dependent) (at both 100 nM and 1 μM): essentially complete AR degradation
Cc1ncsc1-c1ccc([C@H](C)NC(=O)C2C[C@@H](O)CN2C(=O)[C@@H](NC(=O)CN2CCN(c3ccc(C#Cc4ccc(N5C(=S)N(c6ccc(C#N)c(C(F)(F)F)c6)C(=O)C5(C)C)cc4)cn3)CC2)C(C)(C)C)cc1 (stereo partly drawn) [Compound 24, (4R)-1-((S)-2-(2-(4-(5-((4-(3-(4-Cyano-3-(trifluoromethyl)phenyl)-5,5-dimethyl-4-oxo-2-thioxoimidazolidin-1-yl)phenyl)ethynyl)pyridin-2-yl)piperazin-1-yl)acetamido)-3,3-dimethylbutanoyl)-4-hydroxy-N—((S)-1-(4-(4-methylthiazol-5-yl)phenyl)ethyl)pyrrolidine-2-carboxamide]		3%	31%	Dmax at 10 µM [4]: 28%
Cc1ncsc1-c1ccc(CNC(=O)C2C[C@@H](O)CN2C(=O)[C@@H](NC(=O)CCCNC(=O)c2ccc(N3C(=S)N(c4ccc(C#N)c(C(F)(F)F)c4)C(=O)C3(C)C)cc2F)C(C)(C)C)cc1 (stereo partly drawn) [Compound 9, (4R)-1-((S)-2-(4-(4-(3-(4-Cyano-3-(trifluoromethyl)phenyl)-5,5-dimethyl-4-oxo-2-thioxoimidazolidin-1-yl)-2-fluorobenzamido)butanamido)-3,3-dimethylbutanoyl)-4-hydroxy-N-(4-(4-methylthiazol-5-yl)benzyl)pyrrolidine-2-carboxamide]		15%	23%	Dmax at 10 µM [4]: 33%
